The source made the active and inactive calls.
Assays:
Format in all cases: functional
Pseudomonas aeruginosa = assay: Antimicrobial activity against Pseudomonas aeruginosa ATCC 10145 assessed as growth inhibition after 18-24 hr by broth double microdilution method
Enterococcus faecalis = assay: Antimicrobial activity against Enterococcus faecalis ATCC 29212 assessed as growth inhibition after 18-24 hr by broth double microdilution method
[1] = system: Yersinia pseudotuberculosis; assay: Antimicrobial activity against Yersinia pseudotuberculosis ATCC 911 assessed as growth inhibition after 18-24 hr by broth double microdilution method
Candida albicans = assay: Antimicrobial activity against Candida albicans ATCC 60193 assessed as growth inhibition after 18-24 hr by broth double microdilution method
Escherichia coli = assay: Antimicrobial activity against Escherichia coli ATCC 35218 assessed as growth inhibition after 18-24 hr by broth double microdilution method
[2] = system: Mycolicibacterium smegmatis; assay: Antimicrobial activity against Mycobacterium smegmatis ATCC 607 assessed as growth inhibition after 48-72 hr by broth double microdilution method
Saccharomyces cerevisiae = assay: Antimicrobial activity against Saccharomyces cerevisiae RSKK 251 assessed as growth inhibition after 18-24 hr by broth double microdilution method
Staphylococcus aureus = assay: Antimicrobial activity against Staphylococcus aureus ATCC 25923 assessed as growth inhibition after 18-24 hr by broth double microdilution method
Bacillus cereus = assay: Antimicrobial activity against Bacillus cereus 709 Roma assessed as growth inhibition after 18-24 hr by broth double microdilution method
Listeria monocytogenes = assay: Antimicrobial activity against Listeria monocytogenes ATCC 43251 assessed as growth inhibition after 18-24 hr by broth double microdilution method

Measured: MIC

CCOC(=O)Cn1nc(C)n(/N=C/c2ccncc2)c1=O
250 µg/mL: Candida albicans
inactive: all other assays above

CC1(C)S[C@@H]2[C@H](NC(=O)[C@H](N)c3ccccc3)C(=O)N2[C@H]1C(=O)O [AMPICILLIN]
32 µg/mL: [1]
< 1 µg/mL: Bacillus cereus
8 µg/mL: Listeria monocytogenes
> 128 µg/mL: Pseudomonas aeruginosa
2 µg/mL: Enterococcus faecalis | Staphylococcus aureus

Cc1nn(CC(=O)N/N=c2\sc(-c3ccc(Cl)cc3)cn2-c2ccccc2)c(=O)n1CCCn1ccnc1
1000 µg/mL: Saccharomyces cerevisiae
39.9 µg/mL: [2]
250 µg/mL: Candida albicans
not listed: Bacillus cereus
inactive: all other assays above

Cc1nn(-c2ccc([N+](=O)[O-])cc2F)c(=O)n1CCCn1ccnc1
500 µg/mL: Candida albicans | Saccharomyces cerevisiae
inactive: all other assays above

CN[C@@H]1[C@H](O[C@H]2[C@H](O[C@H]3[C@H](O)[C@@H](O)[C@H](N=C(N)N)[C@@H](O)[C@@H]3N=C(N)N)O[C@@H](C)[C@]2(O)C=O)O[C@@H](CO)[C@H](O)[C@H]1O [STREPTOMYCIN]
4 µg/mL: [2]

Cc1nn(Cc2nnc(S)n2-c2ccccc2)c(=O)n1/N=C/c1ccncc1
250 µg/mL: Candida albicans
inactive: all other assays above

Cc1nn(-c2ccc(/N=C/c3c(Cl)cccc3Cl)cc2F)c(=O)n1CCCn1ccnc1
250 µg/mL: Candida albicans
3.9 µg/mL: [2]
not listed: Escherichia coli
inactive: all other assays above

Cc1nn(CC(=O)NNC(=S)Nc2ccccc2)c(=O)n1CCCn1ccnc1
31.3 µg/mL: [2]
62.5 µg/mL: Saccharomyces cerevisiae
250 µg/mL: Candida albicans
inactive: all other assays above

OC(Cn1cncn1)(Cn1cncn1)c1ccc(F)cc1F [FLUCONAZOLE]
< 8 µg/mL: Candida albicans | Saccharomyces cerevisiae

Cc1nn(CNCc2ccco2)c(=O)n1CCCn1ccnc1
500 µg/mL: Candida albicans
125 µg/mL: [2] | Bacillus cereus
inactive: all other assays above

Cc1nn(CC(=O)NN)c(=O)n1CCCn1ccnc1
125 µg/mL: [1] | Escherichia coli | [2]
inactive: all other assays above

COc1ccc(/C=N/NC(=O)Cn2nc(C)n(/N=C/c3ccncc3)c2=O)cc1
250 µg/mL: Candida albicans
inactive: all other assays above

Cc1n[nH]c(=O)n1CCCn1ccnc1
500 µg/mL: Candida albicans
1000 µg/mL: Saccharomyces cerevisiae
125 µg/mL: [2]
not listed: Bacillus cereus
inactive: all other assays above

Cc1nn(CC(=O)N/N=C2\SCC(=O)N2c2ccccc2)c(=O)n1CCCn1ccnc1
62.5 µg/mL: [2]
inactive: all other assays above

Cc1nn(-c2ccc(N)cc2F)c(=O)[nH]1
500 µg/mL: Saccharomyces cerevisiae
125 µg/mL: Candida albicans
31.3 µg/mL: [2]
inactive: all other assays above

Cc1nn(CC(=O)N/N=c2\sc(-c3ccc(Cl)cc3)cn2-c2ccccc2)c(=O)n1/N=C/c1ccncc1
250 µg/mL: Saccharomyces cerevisiae
125 µg/mL: Candida albicans | Staphylococcus aureus | Bacillus cereus
inactive: all other assays above

Cc1nn(-c2ccc(N)cc2F)c(=O)n1CCCn1ccnc1
31.3 µg/mL: [2]
62.5 µg/mL: Saccharomyces cerevisiae
250 µg/mL: Candida albicans
inactive: all other assays above

Cc1n[nH]c(=O)n1/N=C/c1ccncc1
125 µg/mL: Candida albicans | [2]
500 µg/mL: Saccharomyces cerevisiae
inactive: all other assays above

CCOC(=O)Cn1nc(C)n(CCCn2ccnc2)c1=O
250 µg/mL: Candida albicans
not listed: [1]
inactive: all other assays above

Cc1nn(-c2ccc(/N=C3\SCC(=O)N3Cc3ccccc3)cc2F)c(=O)n1CCCn1ccnc1
500 µg/mL: Candida albicans | Saccharomyces cerevisiae
125 µg/mL: [2]
inactive: all other assays above

Cc1nn(CN2CCN(c3ccccc3)CC2)c(=O)n1CCCn1ccnc1
1.2 µg/mL: Bacillus cereus
0.7 µg/mL: [1]
31.3 µg/mL: Pseudomonas aeruginosa
125 µg/mL: Saccharomyces cerevisiae
62.5 µg/mL: Staphylococcus aureus
inactive: all other assays above

COc1ccc(/C=N/NC(=O)Cn2nc(C)n(/N=C/c3ccncc3)c2=O)cc1O
125 µg/mL: Candida albicans
inactive: all other assays above

Cc1nn(CC(=O)N/N=C/c2ccccc2O)c(=O)n1/N=C/c1ccncc1
250 µg/mL: Candida albicans
inactive: all other assays above

Cc1nn(CN2CCCCC2)c(=O)n1CCCn1ccnc1
3.9 µg/mL: [2] | Saccharomyces cerevisiae
15.6 µg/mL: Candida albicans
< 0.12 µg/mL: all other assays above

Cc1nn(-c2ccc(/N=C/c3ccc(Br)cc3)cc2F)c(=O)n1CCCn1ccnc1
0.24 µg/mL: [2]
inactive: all other assays above

Cc1nn(CC(=O)NN)c(=O)n1/N=C/c1ccncc1
250 µg/mL: [2]
500 µg/mL: Candida albicans
inactive: all other assays above

Cc1nn(CNCCN2CCNCC2)c(=O)n1CCCn1ccnc1
62.5 µg/mL: [1]
1.2 µg/mL: Escherichia coli
500 µg/mL: [2]
125 µg/mL: Candida albicans | Staphylococcus aureus
not listed: Saccharomyces cerevisiae
inactive: all other assays above

Cc1nn(-c2ccc(NC(=S)NCc3ccccc3)cc2F)c(=O)n1CCCn1ccnc1
500 µg/mL: Candida albicans | Saccharomyces cerevisiae
250 µg/mL: [2]
not listed: Bacillus cereus
inactive: all other assays above
